Measurements: publication PMC9026348, “Investigation of Direct and Retro Chromone-2-Carboxamides Based Analogs of Pseudomonas aeruginosa Quorum Sensing Signal as New Anti-Biofilm Agents” (Pharmaceuticals, 2022)

Assays:
[1] = tested on: P. aeruginosa PAO1 biofilms; assay: Anti-biofilm assay, CFU count of adherent cells; format: cell-based, Pseudomonas aeruginosa PAO1; details: PAO1, 48 h, relative to untreated control, mean ± SD of 3 independent experiments; for inhibition at 50 µM: Pseudomonas aeruginosa
Protocol: The effect of all compounds was evaluated on PAO1 biofilms, grown in 24-well microplates. The antibiofilm assay used in this study is based on a low nutritive culture medium, a rather weak inoculum (10^2 CFU/mL), and a regular renewal of the culture medium (at 2, 4, 6, 20, and 24 h), in order to promote the growth of adhered cells as biofilm, instead of the growth and/or sedimentation of planktonic cells. Since the QS systems are involved in early steps of biofilm formation, compounds were added at t0. After incubation, viable cells were quantified by CFU plate counts.
The rather low concentration of 50 µM used was set up according to detected concentrations of QS molecules in CF patients’ lungs. […] For all compounds, MICs/MBCs were higher than 500 µM. To be considered active, a threshold of 50% inhibition, relative to the untreated control, was applied.
Pseudomonas aeruginosa PAO1 was obtained from the Institute Pasteur Collection (CIP 104116, Paris, France), frozen and kept at -80 °C in a 20% (v/v) glycerol stock solution. Before each experiment, two successive subcultures were prepared on trypticase soy agar and incubated for 24 h under aerobic conditions at 37 °C. Before each experiment, bacterial suspensions of 10^8 CFU/mL were prepared by adjusting OD at 640 nm to 0.150.
The bacterial enumerations were done on trypticase soy agar. The minimum biofilm broth used for biofilm formation (MBB) was prepared in sterile distilled water (SDW) and was composed of MgSO4·7H2O (0.02 g/L), FeSO4·7H2O (0.5 mg/L), Na2HPO4 (1.25 g/L), KH2PO4 (0.5 g/L), (NH4)2SO4 (0.1 g/L), and glucose (0.05 g/L) from Merck-Sigma (France).
The enumeration of adhered bacteria was carried-out according to Campanac et al. with some modifications. P. aeruginosa biofilms were grown in a 24-wells microtiter plate for 48 h. The culture medium was composed of BBM 2X (1.0 mL) and 1.0 mL of a 10^−4 M solution of tested compound dissolved in SDW (final concentration 50 µM). After inoculation with 100 µL of a 10^2 CFU/mL bacterial suspension of P. aeruginosa PAO1 (final inoculum 10 CFU/well), the microtiter plate was incubated à 37 °C. After 2 h, 4 h, 6 h, 20 h and 24 h of incubation, each well was emptied, rinsed twice with SDW, and the culture medium was renewed. After 48 h of culture, the biofilm was rinsed twice with 2.0 mL SDW. The bottom of each well was scraped with a sterile spatula and suspended in 1.0 mL of SDW. The content of each well was diluted by serial dilutions in test tubes. After inclusion of 0.9 mL of each dilution in trypticase soy agar, Petri dishes were incubated for 48 h at 37 °C. The number of colony forming units (CFUs) was counted and the inhibition percentage calculated using the following formula: Inhibition(%)=Adhered cellsControl(CFU/mL)−Adhered cellsSample(CFU/mL) /Adhered cellsControl×100

Cytotoxicity, MTT assay = format: cell-based; details: African green monkey, Vero cells (ATCC CCL-81)
Protocol: Cells were incubated with different concentrations of compounds 3e, 3′a, 6a, 6b, 6d, 6f, 6k, 6s, 6n, and 6o, varying from 3.9 µM to 1.0 mM. The relative cell viabilities were determined after 24 h using the MTT assay and compared to the untreated control (100% viability). A 5% Tween solution was used as positive control. Figure 5 reports the viability % for all evaluated concentrations.
Evaluation of compounds’ cytotoxicity was performed using the MTT (3-(4,5-dimethylthiazol-2-yl)-2,5-diphenyltetrazolium bromide) colorimetric assay, based on the Mosmann et al. procedure with some modifications. […] Stock solutions of each compound prepared in Dulbeccos’s phosphate-buffered saline (D-PBS, Sigma, St. Quentin Fallavier, France) at a concentration of 2 mM were subjected to 2-fold serial dilutions with RPMI medium.
96-wells microtiter plates were first filled with 100 µL of a cell suspension prepared in RPMI medium (2 × 10^4 cells/100 µL). […] A third control was performed with a non-inoculated culture medium and compounds solution to validate the absence of interactions (OD measurements) between the assessed molecule and the reagents used in the procedure. […] After agitation, the OD was measured at 570 nm using a CLARIOstar Plus plate reader (BMG Labtech) and the viability percentage was calculated using the following formula. […]

| Structure (SMILES) | Biofilm Inhibition (%) ([1]; 50 µM) | inhibition at 50 µM [1] | IC50 at 24 h (Cytotoxicity, MTT assay) | melting point |
| --- | --- | --- | --- | --- |
| O=C(Nc1cc(=O)c2ccccc2o1)c1ccc([N+](=O)[O-])cc1[N+](=O)[O-] [6n, 2,4-Dinitro-N-(4-oxo-4H-chromen-2-yl) benzamide] | 90.0 ± 9.9% | 90.9 ± 9.9% | > 1000 µM | 252 °C |
| O=C(Nc1cc(=O)c2ccccc2o1)C12CC3CC(CC(C3)C1)C2 [6y, (3R,5R,7R)-N-(4-Oxo-4H-chromen-2-yl) adamantane-1-carboxamide] | – | 19.5 ± 1.8% | – | 286 °C |
| CSc1ccccc1NC(=O)c1cc(=O)c2ccccc2o1 [3r, N-(2-(Methylthio)phenyl)-4-oxo-4H-chromene-2-carboxamide] | – | 47.8 ± 5.7% | – | 163 °C |
| O=C(Nc1ccccc1Cl)c1cc(=O)c2ccccc2o1 [3i, N-(2-Chlorophenyl)-4-oxo-4H-chromene-2-carboxamide] | – | 35.2 ± 14.8% | – | 181 °C |
| O=C(Nc1cc(=O)c2ccccc2o1)c1cc([N+](=O)[O-])cc([N+](=O)[O-])c1 [6o, 3,5-Dinitro-N-(4-oxo-4H-chromen-2-yl) benzamide] | – | 78.3 ± 4% | – | 291 °C |
| CCN(CC)CCCC(C)NC(=O)c1cc(=O)c2ccccc2o1 (stereo not shown) [3′g, N-(5-(Diethylamino)pentan-2-yl)-4-oxo-4H-chromene-2-carboxamide] | – | 14.7 ± 2.1% | – | 110 °C |
| O=C(Nc1cc(=O)c2ccccc2o1)c1ccccc1 [6a, N-(4-Oxo-4H-chromen-2-yl) benzamide] | – | 73.6 ± 6.1% | – | 218 °C |
| COc1cc(OC)cc(C(=O)Nc2cc(=O)c3ccccc3o2)c1 [6t, 3,5-Dimethoxy-N-(4-oxo-4H-chromen-2-yl) benzamide] | – | 43.8 ± 2.4% | – | 198 °C |
| O=C(Nc1ccc(F)c(Cl)c1)c1cc(=O)c2ccccc2o1 [3l, N-(3-Chloro-4-fluorophenyl)-4-oxo-4H-chromene-2-carboxamide] | – | < 10% | – | 291 °C |
| O=C(Nc1ccccc1Br)c1cc(=O)c2ccccc2o1 [3j, N-(2-Bromophenyl)-4-oxo-4H-chromene-2-carboxamide] | – | 46.1 ± 10.2% | – | 195 °C |
| O=C(Nc1ccc([N+](=O)[O-])cc1[N+](=O)[O-])c1cc(=O)c2ccccc2o1 [3n, N-(2,4-Dinitrophenyl)-4-oxo-4H-chromene-2-carboxamide] | – | < 10% | – | 330 °C |
| O=C(Nc1cc(=O)c2ccccc2o1)c1ccccc1Cl [6i, 2-Chloro-N-(4-oxo-4H-chromen-2-yl) benzamide] | – | 59.3 ± 3.3% | – | 228 °C |
| O=C(Nc1cc(=O)c2ccccc2o1)c1ccc(F)cc1Cl [6k, 2-Chloro-4-fluoro-N-(4-oxo-4H-chromen-2-yl) benzamide] | – | 63.2 ± 9.3% | – | 249 °C |
| COc1ccccc1C(=O)Nc1cc(=O)c2ccccc2o1 [6q, 2-Methoxy-N-(4-oxo-4H-chromen-2-yl) benzamide] | – | 35.2 ± 6.8% | – | 260 °C |
| O=C(Nc1ccc([N+](=O)[O-])cc1)c1cc(=O)c2ccccc2o1 [3m, N-(4-Nitrophenyl)-4-oxo-4H-chromene-2-carboxamide] | – | 58.7 ± 2.5% | – | 307 °C |
| CCCc1ccc(C(=O)Nc2cc(=O)c3ccccc3o2)cc1 [6d, N-(4-Oxo-4H-chromen-2-yl)-4-propylbenzamide] | – | 69.9 ± 9.7% | – | 229 °C |
| O=C(Nc1ccc(N2CCOCC2)cc1)c1cc(=O)c2ccccc2o1 [3u, N-(4-Morpholinophenyl)-4-oxo-4H-chromene-2-carboxamide] | – | 51.2 ± 11.7% | – | 288 °C |
| O=C(Nc1cc(=O)c2ccccc2o1)c1ccccc1F [6h, 2-Fluoro-N-(4-oxo-4H-chromen-2-yl) benzamide] | – | 27.8 ± 10.7% | – | 194 °C |
| CSc1ccccc1C(=O)Nc1cc(=O)c2ccccc2o1 [6r, 2-(Methylthio)-N-(4-oxo-4H-chromen-2-yl) benzamide] | – | 60.3 ± 15.8% | – | 218 °C |
